Experimental data reported in patent publication US10364471B2, “Tumor suppressor REC8 as a biomarker for gastric cancer” (The Chinese University of Hong Kong, priority 2017, dated 2019).

Tested on: REC8 mRNA expression in gastric cancer cell lines
Assay: Demethylation treatment with 5-Aza, REC8 mRNA by RT-PCR
Format: cell-based, human
Settings: 2 uM 5-Aza for 5 days
Procedure: Gastric cancer cells were treated with 2 uM DNA demethylation agent 5-Aza-2′-deoxycytidine (5-Aza) (Sigma-Aldrich, St Louis, Mo.) for 5 days and medium was refreshed every day.
Total RNA was extracted from cell pellets or tissues using Qiazol® reagent (Qiagen, Valencia, Calif.), and cDNA was synthesized using Transcriptor Reverse Transcriptase (Roche, Indianapolis, Ind.). RT-PCR was performed using the GoTaq® DNA polymerase (Promega). qPCR was performed using SYBR Green master mixture on HT7900 system (Applied Biosystems, Foster City, Calif.). Primers used are listed in Table 5 and also published previously.^7

Compound: Nc1ncn([C@H]2C[C@H](O)[C@@H](CO)O2)c(=O)n1 [5-Aza, 5-Aza-2′-deoxycytidine]
- REC8 mRNA expression (AGS with REC8 expression/unmethylated): had no effect
- REC8 mRNA expression (cell lines with REC8 down-regulated/methylated (BGC823, SNU719, NCI-N87, MKN28, AGS-EBV)): restored
